US11578079B2, “SUMO inhibitor compounds and uses thereof” (CITY OF HOPE, priority 2018, dated 2023)

Key:
SUMO = target: T1, SUMO (Homo sapiens, UniProt Q9UBT2); experiment: SUMO activity (Table I, biological activities); assay type: biochemical; design: key: + (less active); ++ (active); +++ (most active)
T1 sequence (Q9UBT2 1-640): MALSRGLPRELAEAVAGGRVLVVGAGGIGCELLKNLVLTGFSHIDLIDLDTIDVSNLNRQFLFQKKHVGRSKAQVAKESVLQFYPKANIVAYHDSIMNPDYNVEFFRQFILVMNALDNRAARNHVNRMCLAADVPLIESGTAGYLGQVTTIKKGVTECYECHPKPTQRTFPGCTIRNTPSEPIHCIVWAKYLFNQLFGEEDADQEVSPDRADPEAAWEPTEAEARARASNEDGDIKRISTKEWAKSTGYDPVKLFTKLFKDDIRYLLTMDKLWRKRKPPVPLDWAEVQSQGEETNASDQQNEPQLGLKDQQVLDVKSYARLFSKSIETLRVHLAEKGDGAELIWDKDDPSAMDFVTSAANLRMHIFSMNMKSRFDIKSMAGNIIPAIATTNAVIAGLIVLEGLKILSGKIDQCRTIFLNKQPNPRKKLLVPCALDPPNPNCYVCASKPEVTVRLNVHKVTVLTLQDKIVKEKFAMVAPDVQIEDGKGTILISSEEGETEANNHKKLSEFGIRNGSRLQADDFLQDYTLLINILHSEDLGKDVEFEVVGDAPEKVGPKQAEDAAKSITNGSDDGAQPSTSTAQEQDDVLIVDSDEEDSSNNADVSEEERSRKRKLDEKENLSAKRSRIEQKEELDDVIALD
T1 sequence (Q9UBE0 1-346 partner): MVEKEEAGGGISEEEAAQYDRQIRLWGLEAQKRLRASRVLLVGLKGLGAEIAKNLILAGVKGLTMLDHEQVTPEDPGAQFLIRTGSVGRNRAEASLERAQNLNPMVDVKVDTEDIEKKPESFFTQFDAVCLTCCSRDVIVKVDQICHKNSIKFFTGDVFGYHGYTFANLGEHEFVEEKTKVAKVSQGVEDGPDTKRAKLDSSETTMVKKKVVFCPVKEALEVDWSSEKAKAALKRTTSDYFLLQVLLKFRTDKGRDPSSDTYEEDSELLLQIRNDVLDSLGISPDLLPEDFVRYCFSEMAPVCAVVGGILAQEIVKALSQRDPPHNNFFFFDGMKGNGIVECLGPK

c-Myc = c-Myc activity (Table I, biological activities); design: key: + (less active); ++ (active); +++ (most active)

| Structure (SMILES) | SUMO (SUMO) | c-Myc (c-Myc) |
| --- | --- | --- |
| COC(=O)C1=C(C(=O)NC2CCN(C(=O)NCc3cccnc3)CC2)C2C=CC1(C(Cc1ccccc1)Nc1ccccc1)O2 (stereo not shown) [Compound 384] | ++ | + |
| COC(=O)C1=C(C(=O)NC2CCN(C(=O)CN(C)C)CC2)C2C=CC1(C(Cc1ccccc1)Nc1ccccc1)O2 (stereo not shown) [Compound 385] | ++ | + |
| COC(=O)C1=C(C(=O)NC2CCN(C(=O)c3cccc(F)c3)CC2)C2C=CC1(C(Cc1ccccc1)Nc1ccccc1)O2 (stereo not shown) [Compound 386] | ++ | + |
| COC(=O)C1=C(C(=O)NC2CCN(C(=O)Cc3ccccc3)CC2)C2C=CC1(C(Cc1ccccc1)Nc1ccccc1)O2 (stereo not shown) [Compound 387] | ++ | + |
| COC(=O)C1=C(C(=O)N(C)CCN(C)C)C2C=CC1(C(Cc1ccccc1)Nc1ccccc1)O2 (stereo not shown) [Compound 388] | + | + |
| COC(=O)C1=C(C(=O)NCCCN(C)C)C2C=CC1(C(Cc1ccccc1)Nc1ccccc1)O2 (stereo not shown) [Compound 389] | ++ | + |
| COC(=O)C1=C(C(=O)NC2CCN(C(=O)c3cncnc3)CC2)C2C=CC1(C(Cc1ccccc1)Nc1ccccc1)O2 (stereo not shown) [Compound 390] | ++ | + |
| COC(=O)C1=C(C(=O)NC2CCN(C(=O)c3ccccn3)CC2)C2C=CC1(C(Cc1ccccc1)Nc1ccccc1)O2 (stereo not shown) [Compound 391] | ++ | + |
| COC(=O)C1=C(C(=O)NC2CCN(C(=O)c3ccc(Cl)s3)CC2)C2C=CC1(C(Cc1ccccc1)Nc1ccccc1)O2 (stereo not shown) [Compound 392] | ++ | + |
| COC(=O)C1=C(C(=O)NCCNS(=O)(=O)c2ccccc2)C2C=CC1(C(Cc1ccccc1)Nc1ccccc1)O2 (stereo not shown) [Compound 394] | ++ | + |
| COC(=O)C1=C(C(=O)NCCNC(=O)Nc2ccccc2)C2C=CC1(C(Cc1ccccc1)Nc1ccccc1)O2 (stereo not shown) [Compound 395] | ++ | + |
| COC(=O)C1=C(C(=O)NCc2ccccn2)C2C=CC1(C(Cc1ccccc1)Nc1ccccc1)O2 (stereo not shown) [Compound 396] | + | ++ |
| COC(=O)C1=C(C(=O)NCCN(C)C)C2C=CC1(C(Cc1ccccc1)Nc1cc(F)cc(F)c1)O2 (stereo not shown) [Compound 399] | ++ | + |
| CCN(CC)CCNC(=O)C1=C(C(=O)OC)C2(C(Cc3ccccc3)Nc3cc(F)cc(F)c3)C=CC1O2 (stereo not shown) [Compound 400] | ++ | ++ |
| COC(=O)C1=C(C(=O)NCCN(C)C)C2(C(Cc3ccccc3)Nc3cc(F)cc(F)c3)C=CC1O2 (stereo not shown) [Compound 401] | ++ | ++ |
| CCN(CC)CCNC(=O)C1=C(C(=O)OC)C2C=CC1(C(Cc1ccccc1)Nc1cc(F)cc(F)c1)O2 (stereo not shown) [Compound 402] | ++ | + |
| COCCNC(=O)C1=C(C(=O)OC)C2(C(Cc3ccccc3)Nc3ccccc3)C=CC1O2 (stereo not shown) [Compound 403] | ++ | + |
| COC(=O)C1=C(C(=O)NC2CN(C(=O)OC(C)(C)C)C2)C2C=CC1(C(Cc1ccccc1)Nc1ccccc1)O2 (stereo not shown) [Compound 404] | ++ | + |
| COC(=O)C1=C(C(=O)NCC2CCCO2)C2C=CC1(C(Cc1ccccc1)Nc1ccccc1)O2 (stereo not shown) [Compound 405] | ++ | + |
| COC(=O)C1=C(C(=O)NCCN2CCCC2)C2C=CC1(C(Cc1ccccc1)Nc1ccccc1)O2 (stereo not shown) [Compound 406] | +++ | ++ |
| COC(=O)C1=C(C(=O)NCCN(C)C)C2C=CC1(C(Cc1ccccc1)Nc1ccc(F)cc1F)O2 (stereo not shown) [Compound 409] | ++ | ++ |
| CCN(CC)CCNC(=O)C1=C(C(=O)OC)C2(C(Cc3ccccc3)Nc3ccc(F)cc3F)C=CC1O2 (stereo not shown) [Compound 410] | ++ | + |
| CCOC(=O)C1=C(C(=O)NCCN(C)C)C2C=CC1(C(Cc1ccccc1)Nc1ccc(F)cc1F)O2 (stereo not shown) [Compound 411] | ++ | + |
